Assay [1] can be described thus: Sensory evaluation of saltiness enhancement function, naringenin-related flavonoid components in NaCl aqueous solution (Example 3). The following applies: for saltiness intensity: 30 ppm in NC salt water (NaCl 0.8%), scale NC = 1.0, PC1 0.9% = 2.0, PC2 1.0% = 3.0, panel of three, average. The source says: 1) The following flavonoid components were used as naringenin-related flavonoid components: • Luteolin (manufactured by Salus Nutra Inc.), pinocembrin (manufactured by Xi'an Demeter Biotech Co., Ltd.), liquiritigenin (manufactured by Xi'an Julong Import and Export Co., Ltd.), apigenin (manufactured by Xi'an Best Bio-Tech Co., Ltd.), and acacetin (manufactured by Xi'an Reain Biotechnology Co., Ltd.)
2) The following compound was used as control component: Quercetin (manufactured by Medience Corporation) (structure shown below)
As shown in Table 7: NaCl aqueous solution (weight g/100 g), various NaCl aqueous solutions (saline solutions) were prepared. Water at ordinary temperature was used for preparation.
Each naringenin-related flavonoid component dissolved in propylene glycol (SIGMA) at 10000 ppm was added to the prepared 0.8% salt water solution such that the concentration at the time of eating (corresponding to the content of the present flavonoid component or a salt thereof in the oral ingestion product at the time of oral ingestion, as a flavonoid component relative to the oral ingestion product) was 30 ppm (Table 8).
The saltiness intensity of each sample was blindly evaluated using a scoring system in 0.5 point increments, with the saltiness intensity of NC in test plot 1 as 1.0 point, the saltiness intensity of PC1 as 2.0 points, and the saltiness intensity of PC2 as 3.0 points. The evaluation was performed by a trained panel of three, and the average score was used. Since the saltiness intensity of 2.0 points of PC1 is evaluated to be clearly stronger in saltiness than NC, samples with a saltiness intensity of 1.5 points or more (NaCl 0.85% or more) were evaluated to have a saltiness enhancement function. In addition, the presence or absence, and intensity of off-taste (bitterness and harsh taste other than saltiness) were also evaluated. The evaluation results are shown in Table 9: Sensory evaluation (saltiness intensity).

A short description of assay [2]: Sensory evaluation of umami enhancement function, naringenin-related flavonoid components in umami solution (Example 4). The following applies: for degree of umami enhancement (times) / umami intensity (points): 30 ppm in NC (sodium glutamate 0.1%); for degree of umami enhancement (times): relative to NC; for umami intensity (points): scale water = 0, NC = 0.30, panel of three, average. Here is the method:
• 1) The five naringenin-related flavonoid components evaluated in Example 3 were used. • 2) Quercetin was used as the control component. Umami solutions were prepared as shown in Table 10: Umami solution (weight g/100 g). Water at ordinary temperature was used for preparation. Each naringenin-related flavonoid component and the like dissolved in propylene glycol (SIGMA) at 10000 ppm was added to the prepared 0.1% umami aqueous solution such that the concentration at the time of eating was 30 ppm (Table 11). The umami intensity of each sample was blindly evaluated using a scoring system in 0.05 point increments, with the umami intensity of water in test plot 1 as 0 point and the umami intensity of NC in test plot 2 as 0.30 points. The evaluation was performed by a trained panel of three, and the average score was used. The umami enhancement function of samples whose umami intensity was enhanced by 1.5 times or more (sodium glutamate 0.45 points or more) due to the addition was evaluated to be functional. In addition, the presence or absence, and intensity of off-taste (bitterness and harsh taste other than umami) were also evaluated. The evaluation results are shown in Table 12: Sensory evaluation (umami intensity).

Assay [3] can be described thus: Sensory evaluation of saltiness enhancement function, naringenin/naringin added to NaCl aqueous solution (Example 1). The conditions noted are these: for saltiness intensity: scale NC = 1.00, PC 0.9% NaCl = 5.5; for saltiness enhancement function: addition of 1 ppm or more to salt water, function = saltiness intensity 1.8 points or more. The protocol: As shown in Table 1: NaCl aqueous solution (weight g/100 g), various NaCl aqueous solutions (saline solutions) were prepared. Filtered water at ordinary temperature was used for preparation. Water, naringenin (Penta Manufacturing), or naringin (IKEDA CORPORATION) were weighed and added to the prepared 0.8% aqueous solution at various concentrations shown in Table 2: Prepared sensory evaluation samples. The saltiness intensity of each sample was blindly evaluated using a scoring system in 0.1 point increments, with the saltiness intensity of NC in test plot 1 as 1.00 point and the saltiness intensity of PC in test plot 2 as 5.5 points. The evaluation was performed by a trained panel of three, and the average score of each panel was used. Samples with a saltiness intensity of 1.8 points or more (NaCl 0.84% or more) due to the addition were evaluated to “have a saltiness enhancement function”. In addition, the presence or absence, and intensity of off-taste (bitterness and harsh taste other than saltiness) were also evaluated. The evaluation results are shown in Table 3: Sensory evaluation (saltiness intensity).

The nature of assay [4]: Sensory evaluation of umami enhancement function, naringenin/naringin added to sodium glutamate umami solution or water (Example 2). The following applies: for umami enhancement function: addition to umami solution (sodium glutamate, sodium aspartate), 30 ppm, function = 1.5 times or more. The protocol: (§1) As shown in Table 4: Umami solution (weight g/100 g), an umami solution was prepared. Water at ordinary temperature was used for preparation. Water, naringenin (Penta manufacturing) or naringin (IKEDA CORPORATION) were weighed and added to each of the prepared umami solutions or water at various concentrations shown in Table 5: Prepared sensory evaluation samples. The umami intensity of each sample was blindly evaluated using a scoring system in 0.01 point increments, with the umami intensity of water in test plot 1 as 0 point, the umami intensity of NC in test plot 3 as 0.30 points, and the umami intensity of NC2 in test plot 4 as 0.10 point. The evaluation was performed by a trained panel of three, and the average score of each panel was used. Samples whose umami intensity was enhanced by 1.5 times or more (sodium glutamate 0.45 points or more, sodium aspartate 0.15 points or more) due to the addition were evaluated to “have an umami enhancement function”. In addition, the presence or absence, and intensity of off-taste (bitterness and harsh taste other than umami) were also evaluated. The evaluation results are shown in Table 6: Sensory evaluation (umami intensity).

Assay [5] in a line: Sensory evaluation of umami enhancement function, naringenin/naringin added to sodium aspartate umami solution (Example 2). The following applies: 30 ppm added to NC2 (Asp-Na, sodium aspartate 0.2%); for umami intensity (points): NC2 = 0.10 point; for degree of umami enhancement (times): relative to NC2. The protocol: as §1
Assay [6] can be described thus: Sensory evaluation of saltiness enhancement function, naringenin/naringin added to NaCl aqueous solution (Example 1). The following applies: 30 ppm added to water (NaCl 0%); scale NC 0.8% NaCl = 1.00, PC 0.9% NaCl = 5.5; panel of three, average.
Where [7] appears, read: 1 ppm added to NC salt water (NaCl 0.8%).
The mark [8] stands for this setting: 10 ppm added to NC salt water (NaCl 0.8%).
Where [9] appears, read: 30 ppm added to NC salt water (NaCl 0.8%).
The mark [10] stands for this setting: 30 ppm added to NC1 (MSG, sodium glutamate 0.1%), NC1 = 0.30 points.
[11] abbreviates: 30 ppm added to NC1 (MSG, sodium glutamate 0.1%), relative to NC1.
[12] abbreviates: 30 ppm added to water, scale water = 0, NC1 = 0.30, NC2 = 0.10.

Here are results for eight molecules from US20250344731A1, “SALTY TASTE/UMAMI ENHANCER” (AJINOMOTO CO., INC., priority 2023, published 2025).

Turning to `O=c1cc(-c2ccc(O)cc2)oc2cc(O)cc(O)c12` [Apigenin, 5,7-dihydroxy-2-(4-hydroxyphenyl)-4H-1-benzopyran-4-one], in assay [1], the saltiness intensity was determined as 3.5 points. For the same molecule, in assay [2], the “degree of umami enhancement (times)” value is listed as 1.87 times and the “umami intensity (points)” value was 0.56 points.
With `C[C@@H]1O[C@@H](O[C@H]2[C@H](Oc3cc(O)c4c(c3)O[C@H](c3ccc(O)cc3)CC4=O)O[C@H](CO)[C@@H](O)[C@@H]2O)[C@H](O)[C@H](O)[C@H]1O` [Naringin, naringin, reference compound], the saltiness intensity in assay [3] (setting [7]) stood at 1.8 points; in assay [3] (setting [8]) it was 2.1 points; in assay [3] (setting [9]), 2.2 points; in assay [6], 0 points. Moreover, the saltiness enhancement function entry in assay [3] was “also showed a saltiness enhancement function”. Further, the “umami intensity (points)” value is recorded as 0.35 points in assay [4] (setting [10]), 0.00 points in assay [4] (setting [12]) and 0.12 points in assay [5]. Besides, the entries for the “degree of umami enhancement (times)” value in assay [4] (setting [11]), in assay [4] (30 ppm added to water) and in assay [5] were 1.2 times, 0 times and 1.2 times, respectively. Besides, the umami enhancement function entry in assay [4] was “no enhancement of the umami intensity was observed”.
On to `O=c1cc(-c2ccc(O)c(O)c2)oc2cc(O)cc(O)c12` [Luteolin, 2-(3,4-dihydroxyphenyl)-5,7-dihydroxy-4-chromenone], for which the saltiness intensity in assay [1] is 2.0 points. Besides, in assay [2], the “degree of umami enhancement (times)” value is 1.43 times and the “umami intensity (points)” value is reported as 0.43 points. The umami enhancement effect entry in assay [2] (30 ppm in umami solution (sodium glutamate 0.1%), functional = 1.5 times or more) is “tendency to enhance umami”.
With `COc1ccc(-c2cc(=O)c3c(O)cc(O)cc3o2)cc1` [Acacetin, 5,7-dihydroxy-4-methoxyflavone], in assay [1], the saltiness intensity was determined as 3.5 points. Besides, in assay [2], the “degree of umami enhancement (times)” value was 1.67 times and the “umami intensity (points)” value was 0.50 points.
For `O=c1c(O)c(-c2ccc(O)c(O)c2)oc2cc(O)cc(O)c12` [Quercetin, reference compound], in assay [1], the saltiness intensity was found to be 1.3 points. Further, the saltiness enhancement effect entry in assay [1] (30 ppm in salt water (NaCl 0.8%), function = 1.5 points or more) is recorded as “did not show a saltiness enhancement effect”. Besides, in assay [2], the “degree of umami enhancement (times)” value amounted to 1.00 times and the “umami intensity (points)” value is 0.30 points.
For the molecule `O=C1C[C@@H](c2ccc(O)cc2)Oc2cc(O)cc(O)c21` (stereo in doubt) [Naringenin, 5,7-dihydroxy-2-(4-hydroxyphenyl)chroman-4-one], the saltiness intensity in assay [3] (setting [7]) is reported as 1.9 points; in assay [3] (5 ppm added to NC salt water (NaCl 0.8%)) it was 2.4 points; in assay [3] (setting [8]), 3.0 points; in assay [3] (setting [9]), 2.9 points; in assay [6], 0 points. The saltiness enhancement function entry in assay [3] was “showed a saltiness enhancement function”. Also, the entries for the “umami intensity (points)” value in assay [4] (setting [10]), in assay [4] (setting [12]) and in assay [5] were 0.47 points, 0.00 points and 0.20 points, respectively. The “degree of umami enhancement (times)” value in assay [4] (setting [11]) came to 1.6 times; in assay [4] (30 ppm added to water), 0 times; in assay [5] it was 2.0 times. Also, in assay [4], the umami enhancement function result is on record as “showed an umami enhancement function”.
In the case of `O=C1CC(c2ccccc2)Oc2cc(O)cc(O)c21` (stereo not drawn) [Pinocembrin, 5,7-dihydroxy-2-phenyl-2,3-dihydro-4H-chromene-4-one], the saltiness intensity in assay [1] came out at 2.0 points. In addition, in assay [2], the “degree of umami enhancement (times)” value was 1.67 times and the “umami intensity (points)” value is reported as 0.50 points.
For `O=C1C[C@@H](c2ccc(O)cc2)Oc2cc(O)ccc21` [Liquiritigenin, (2S)-4′,7-dihydroxyflavan-4-one] the same measures were 3.5 points, 1.87 times and 0.56 points.
